Reference: patent US20030162206A1, “Ceramide kinase and DNA encoding it” (SANKYO COMPANY, LIMITED, priority 2000, published 2003)

Legend:
[1] = biological target: T1, protein of the present invention having ceramide kinase activity (hCERK1) (Homo sapiens, UniProt Q8TCT0); test: Measurement of ceramide kinase activity, lysate of HEK293 cells transfected with pCR3.1-CERK1, [32P]-γ-ATP, TLC; format: biochemical; settings: for Effect on ceramide kinase activity (activated / inhibited): C6-ceramide as substrate, examination of optimum assay conditions; for Phosphorylation by the protein of the present invention (in words): optimum assay conditions for ceramide kinase; for Ratio of activities (pCR3.1-CERK1/pCR3.1) / Phosphorylation activity, Transformed with pCR3.1-CERK 1: substance used as substrate; for Phosphorylation activity, Transformed with pCR3.1-CERK 1: HEK293 cell lysate, [32P]-γ-ATP, 37° C. 20 minutes, pH 7.0, natural ceramide micellized with octyl glucoside
T1 construct: expressed in transfected cells; host or cells: HEK293 (ATCC CRL-1573), transient transfection with pCR3.1-CERK1; sonicated cell lysate
T1 sequence (Q8TCT0 1-537): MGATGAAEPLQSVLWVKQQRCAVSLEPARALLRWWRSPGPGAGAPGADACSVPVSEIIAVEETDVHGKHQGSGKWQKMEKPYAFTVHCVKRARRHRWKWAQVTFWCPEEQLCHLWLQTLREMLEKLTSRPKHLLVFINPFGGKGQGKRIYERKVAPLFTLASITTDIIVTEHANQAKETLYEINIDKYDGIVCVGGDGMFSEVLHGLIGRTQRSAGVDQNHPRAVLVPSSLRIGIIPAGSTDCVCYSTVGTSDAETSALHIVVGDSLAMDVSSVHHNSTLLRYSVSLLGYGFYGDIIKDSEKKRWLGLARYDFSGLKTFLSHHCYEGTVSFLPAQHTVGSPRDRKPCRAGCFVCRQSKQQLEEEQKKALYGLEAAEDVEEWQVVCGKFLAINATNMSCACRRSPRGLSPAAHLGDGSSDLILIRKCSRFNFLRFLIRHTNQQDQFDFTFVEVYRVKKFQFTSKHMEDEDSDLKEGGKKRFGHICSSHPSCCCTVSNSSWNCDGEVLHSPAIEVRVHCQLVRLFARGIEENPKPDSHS
Experimental: Specifically, the solution containing the protein, HEPES buffer solution (pH 7.0) containing magnesium chloride, EDTA, dithiothreitol, sodium vanadate, and protease inhibitor (for example, Complete (trademark), manufactured by Boehringer Manheim), C6 ceramide dissolved in a substrate (bovine serum albumin (hereinafter referred to as “BSA”)) solution having a concentration of 4 mg/ml or ceramide micellized by using octyl glucoside (a preparation purified from bovine fetal brain, manufactured by Sigma), and radio-labeled ^32P-ATP are mixed and incubated at 37° C. to perform a ceramide kinase reaction. Then, the reaction is stopped by adding 1N hydrochloric acid thereto and chloroform:methanol:concentrated hydrochloric acid (100:200: 1 v/v) is added thereto and extracted. The resultant lower layer (chloroform phase) is developed on thin layer chromatography (hereinafter referred to as “TLC”), and analyzed. The ceramide kinase activity can be determined by quantifying the spot in said TLC corresponded to ceramide-1-phosphate (hereinafter referred to as “Cer-1-P”) which is a product.
(§1) That is, after putting 6×10^5 HEK293 cells per well into a polylysine-coated 6-well plate for tissue culture (manufactured by Iwaki Glass) and incubating at 37° C. for 24 hours, they were transfected with one μg of pCR3.1-CERK 1 by using a transfection reagent (Lipofectamin plus, manufactured by Life technology) according to the directions attached thereto. After the operation for the transfection was finished, cells were cultured at 37° C. for one day and the conditioned medium was removed. Then, the cells were collected by using buffer solution A (10% glycerol, 1 mM dithiothreitol, 1 mM EDTA, 1 mM sodium vanadate, protease inhibitor (Complete™, manufactured by Boeheringer Mannheim), a 200 mM Hepes buffer solution, pH 7.0). By ultrasonication with a probe-type sonicater (Cell Disrupter 200, manufactured by Branson), the collected cells were broken into pieces, and the resulting cell lysate was diluted and then used for measurement of enzyme activity as shown in Example 3.
(§2) Specifically, 10 μl of 1 mM C6-ceramide prepared by using BSA solution (4 mg/ml) and 10 μl of a mixture of 100 mM magnesium chloride and 2 mM of radiolabeled [^32P]-gamma-ATP (manufactured by NEN) were added to 180 μl of buffer B [1 mM dithiothreitol, 1 mM EDTA, 1 mM sodium vanadate, protease inhibitor (Complete™, manufactured by Boeheringer Mannheim), 1 mM calcium chloride, a 200 mM HEPES buffer solution, pH 7.0] which further contains the protein of the present invention prepared in Example 2, and then incubated at 37° C. for 20 minutes to conduct the ceramide kinase reaction. Next, after stopping the reaction by adding 20 μl of 1 N hydrochloric acid, 800 μl (100:200:1, v/v) of chloroform:methanol:concentrated hydrochloric acid, 250 μl of 2.5 M potassium chloride, and 250 μl of chloroform were added thereto and extracted. The resulting extract was subjected to centrifugation at 2000×g, and the obtained lower layer (chloroform phase) was developed and analyzed on TLC.
That is, a necessary amount of ceramide dissolved in chloroform was dried to be solid under a nitrogen air current, and the buffer solution B which contains 0.2% of octyl glucoside was added thereto, and then subjected to ultrasonication, and finally 100 μM ceramide solution was provided. 90 μl of the mixture of buffer solution B containing the enzyme solution and 10 μl of the mixture consisting of 100 mM magnesium chloride and 2 mM radio-labeled [^32P]-γ-ATP were added to 100 μl of said substrate solution, and then incubated at 37° C. for 20 minutes to perform the ceramide kinase reaction. Extraction of Cer-1-P was conducted by a similar procedure to the above-mentioned.

[2] = system: enzyme activity which HEK293 cell has endogenously; test: Phosphorylation activity of lysate of HEK293 cells transfected with only pCR3.1 vector (negative-reaction control); format: biochemical, human; settings: substance used as substrate; lysate of HEK293 cells expressing only pCR3.1 vector
Experimental: as §1, with “In order to examine whether the protein of the present invention has ceramide kinase activity, the human embryo kidney cell HEK293 (ATCC CRL-1573) was transfected with the expression vector pCR3.1-CERK1 obtained above. That is,” for “That is,”, “Example 3. […]” for “Example 3.”
as §2, with “Next, after stopping the reaction by adding 20 μl of 1 N hydrochloric acid, 800 μl (100:200:1, v/v) of chloroform:methanol:concentrated hydrochloric acid, 250 μl of 2.5 M potassium chloride, and 250 μl of chloroform were added thereto and extracted.” left out, “TLC. […]” for “TLC.”

| Compound | Effect on ceramide kinase activity (activated / inhibited) [1] | Phosphorylation by the protein of the present invention (in words) [1] | Ratio of activities (pCR3.1-CERK1/pCR3.1) [1] | Phosphorylation activity, Transformed with pCR3.1-CERK 1 [1] | Km ([1]; substrate C6-ceramide) | Phosphorylation activity, Transformed with pCR3.1 [2] |
| --- | --- | --- | --- | --- | --- | --- |
| CCCCCCCCCCCCC/C=C/[C@@H](O)[C@H](CO)NC(=O)CCCCC [C6-ceramide, N-hexanoyl form of D-erythro-sphingosine] |  | high efficiency | 183 | 1280 pmol/min/mg | 7 µM | 7 pmol/min/mg |
| [Cl-].[Cl-].[Mg+2] [magnesium chloride] | activated |  |  |  |  |  |
| CCCCCCCCCCCCC/C=C/[C@@H](O)[C@@H](N)CO [D-erythro-sphingosine] |  | hardly phosphorylated | 1 | 50 pmol/min/mg |  | 50 pmol/min/mg |
| [Ca+2].[Cl-].[Cl-] [calcium chloride] | activated |  |  |  |  |  |

The next lines start with results.

| Effect on ceramide kinase activity (activated / inhibited) [1] | Phosphorylation by the protein of the present invention (in words) [1] | Ratio of activities (pCR3.1-CERK1/pCR3.1) [1] | Phosphorylation activity, Transformed with pCR3.1-CERK 1 [1] | Km ([1]; substrate C6-ceramide) | Compound | Phosphorylation activity, Transformed with pCR3.1 [2] |
| --- | --- | --- | --- | --- | --- | --- |
| inhibited |  |  |  |  | phosphatidylserine |  |
| inhibited |  |  |  |  | C[C@H](CCC(=O)O)[C@H]1CC[C@H]2[C@@H]3[C@H](O)C[C@@H]4C[C@H](O)CC[C@]4(C)[C@H]3C[C@H](O)[C@]12C [cholic acid] |  |
| inhibited |  |  |  |  | Triton X-100 |  |
|  | hardly phosphorylated | 1 | 150 pmol/min/mg |  | diacylglycerol [DG] | 130 pmol/min/mg |
